Laboratory results reported in patent publication US5264429A, “2-spirocyclopropyl cephalosporin sulfone derivatives” (SynPhar Laboratories, Inc., priority 1991, dated 1993).
pIC50: −log10 of the molar value. Read-outs that look alike come from different tables or passages of the source.

What was measured:
[1] = molecular target: T1, trypsin (Bos taurus, UniProt P00760); experiment: Inhibition of trypsin (TRY); format: biochemical, bovine; details: for IC50: trypsin, pH 8.8, 10 minute preincubation, 22° C., read-out: IC50 TRY (converted)
T1 construct: from tissue; host or cells: bovine pancreas
T1 sequence (P00760 24-246): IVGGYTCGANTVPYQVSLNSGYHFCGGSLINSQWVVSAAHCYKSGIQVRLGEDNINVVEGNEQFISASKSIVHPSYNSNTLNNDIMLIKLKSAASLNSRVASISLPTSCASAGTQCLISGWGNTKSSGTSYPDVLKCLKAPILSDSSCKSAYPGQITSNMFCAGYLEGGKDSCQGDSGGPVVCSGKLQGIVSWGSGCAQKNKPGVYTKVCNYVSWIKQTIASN

[2] = molecular target: T2, cathepsin G (Homo sapiens, UniProt P08311); experiment: Inhibition of cathepsin G (CTG); format: biochemical; details: for IC50: cathepsin G 50 nM, pH 7.5, 10 minute preincubation, 30° C., read-out: IC50 CTG (converted)
T2 construct: from tissue; host or cells: human white blood cells
T2 sequence (P08311 21-244 limits assumed): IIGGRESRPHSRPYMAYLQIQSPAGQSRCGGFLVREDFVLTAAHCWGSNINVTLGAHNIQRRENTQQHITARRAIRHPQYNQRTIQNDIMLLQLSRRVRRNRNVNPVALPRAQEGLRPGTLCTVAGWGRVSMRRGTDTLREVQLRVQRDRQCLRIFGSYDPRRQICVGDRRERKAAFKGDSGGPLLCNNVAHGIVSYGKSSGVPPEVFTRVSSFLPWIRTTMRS
Experimental: Enzyme: Purified Cathepsin G from human white blood cells
Substrate: N-succinyl-L-alanyl-L-alanyl-L-phenylalanyl-L-phenylalanine -p-NA.
Reaction mixture: 10 mM Phosphate buffer (pH 7.5), 500 mM NaCl, 10% DMSO, 2.0 mM Substrate.

[3] = molecular target: T3, cathepsin D (Bos taurus, UniProt P80209); experiment: Inhibition of cathepsin D (CTD); format: biochemical, bovine; details: cathepsin D, pH 3.2, 10 minute preincubation, 30° C.; read-out: IC50 CTD
T3 construct: from tissue; host or cells: bovine spleen
T3 sequence (P80209 45-390): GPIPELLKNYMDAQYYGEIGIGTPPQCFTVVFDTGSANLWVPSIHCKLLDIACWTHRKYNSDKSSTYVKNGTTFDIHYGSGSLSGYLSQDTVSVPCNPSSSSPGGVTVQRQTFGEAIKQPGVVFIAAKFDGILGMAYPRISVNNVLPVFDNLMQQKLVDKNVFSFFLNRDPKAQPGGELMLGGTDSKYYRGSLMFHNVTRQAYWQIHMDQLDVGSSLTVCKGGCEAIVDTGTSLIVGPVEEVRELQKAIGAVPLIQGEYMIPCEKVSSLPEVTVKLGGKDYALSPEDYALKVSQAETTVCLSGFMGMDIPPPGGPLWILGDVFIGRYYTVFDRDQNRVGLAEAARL
Experimental: Except for Cathepsin D, the enzyme activities were determined by monitoring the increase in absorbance at 410 nm caused by the hydrolysis of chromogenic substrates. The activity of Cathepsin D was determined by monitoring the absorbance of 5% trichloroacetic acid-soluble material at 280 nm. Inhibition of enzymes by the compounds described were determined after a 10 minute preincubation with enzymes in reaction mixtures minus substrate. Reactions were initiated by the addition of substrates. […] Cathepsin D was used at the concentration that produced approximately 0.15 O.D. increase per 20 min at 280 nm under the standard conditions. All other proteases were assayed at the concentrations that produced approximately 0.1 O.D. change per minute at 410 nm under the standard conditions.

[4] = molecular target: T4, human leukocyte elastase (HLE) (Homo sapiens, UniProt P08246); experiment: Enzyme Assay for Inhibition of HLE; format: biochemical; details: HLE 10 nM, pH 7.6, 10 minute preincubation, 30° C.
T4 construct: from tissue; host or cells: human white blood cells
T4 sequence (P08246 30-247 limits assumed): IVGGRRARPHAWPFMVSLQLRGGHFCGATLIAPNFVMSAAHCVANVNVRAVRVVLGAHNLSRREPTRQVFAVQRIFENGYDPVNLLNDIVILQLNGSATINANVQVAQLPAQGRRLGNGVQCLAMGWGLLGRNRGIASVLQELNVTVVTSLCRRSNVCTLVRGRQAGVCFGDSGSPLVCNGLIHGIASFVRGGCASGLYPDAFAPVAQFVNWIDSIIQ
Experimental: Enzyme Assay for Inhibition of HLE:
Enzyme: Purified elastase from human white blood cells.
Substrate: MeO-succinyl-L-alanyl-L-alanyl-L-prolyl-L-valine-p-nitro-anilide(NA).
Reaction Mixture: 10 mM phosphate buffer (pH 7.6), 500 mM NaCl, 10% dimethylsulfoxide (DMSO), 0.35 mM substrate.
The enzyme activity was determined by monitoring the increase in absorbance at 410 nm caused by the hydrolysis of chromogenic substrates. Inhibition of enzyme by the compounds described were determined after a 10 minute preincubation with the enzyme in reaction mixture minus substrate. Reaction was initiated by the addition of substrate. The concentration of human leukocyte elastase used for assay was at 10 nM.
HLE, CTG, PPE and CTD were tested at 30° C. and the others were […]

[5] = molecular target: T5, porcine pancreatic elastase (Sus scrofa, UniProt P00772); experiment: Inhibition of porcine pancreatic elastase (PPE); format: biochemical; details: porcine pancreatic elastase 240 nM, pH 8.9, 10 minute preincubation, 30° C.
T5 construct: from tissue; host or cells: porcine pancreas
T5 sequence (P00772 27-266): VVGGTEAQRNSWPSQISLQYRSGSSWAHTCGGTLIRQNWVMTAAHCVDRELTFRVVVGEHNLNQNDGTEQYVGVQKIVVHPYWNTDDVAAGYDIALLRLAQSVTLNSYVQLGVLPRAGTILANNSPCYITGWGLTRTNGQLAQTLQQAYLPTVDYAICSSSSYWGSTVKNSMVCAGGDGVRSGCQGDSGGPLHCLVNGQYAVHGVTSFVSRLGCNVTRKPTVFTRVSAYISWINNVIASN
Experimental: (§1) HLE, CTG, PPE and CTD were tested at 30° C. and the others were
aminopeptidase M; CTG, cathespin G; CTD, cathespin D; PPE, porcine
Porcine pancreatic Elastase (PPE)
Enzyme: Purified elastase from porcine pancreas
Substrate: MeO-succinyl-L-alanyl-L-alanyl-L-prolyl-L-valine-pNA
Reaction mixture: 50 mM Tris[Tris(hydroxymethyl) aminomethane]. HCl buffer (pH 8.9), 500 mM NaCl, 10% DMSO, 1.4 mM Substrate.
(§2) Except for Cathepsin D, the enzyme activities were determined by monitoring the increase in absorbance at 410 nm caused by the hydrolysis of chromogenic substrates. The activity of Cathepsin D was determined by monitoring the absorbance of 5% trichloroacetic acid-soluble material at 280 nm.
(§3) Inhibition of enzymes by the compounds described were determined after a 10 minute preincubation with enzymes in reaction mixtures minus substrate. Reactions were initiated by the addition of substrates. The concentration used for assays were porcine pancreatic elastase at 240 nM and human Cathepsin G at 50 nM. Cathepsin D was used at the concentration that produced approximately 0.15 O.D. increase per 20 min at 280 nm under the standard conditions. All other proteases were assayed at the concentrations that produced approximately 0.1 O.D. change per minute at 410 nm under the standard conditions.

[6] = molecular target: T6, cathepsin C (Bos taurus, UniProt Q3ZCJ8); experiment: Inhibition of cathepsin C (CTC); format: biochemical, bovine
T6 construct: from tissue; host or cells: bovine spleen
T6 sequence (Q3ZCJ8 231-394 limits assumed): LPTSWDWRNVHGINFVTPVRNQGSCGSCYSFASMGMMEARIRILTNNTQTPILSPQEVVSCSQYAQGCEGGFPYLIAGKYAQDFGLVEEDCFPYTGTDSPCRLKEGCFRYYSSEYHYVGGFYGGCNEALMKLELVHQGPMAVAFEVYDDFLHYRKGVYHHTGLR
T6 sequence (Q3ZCJ8 395-463 limits assumed): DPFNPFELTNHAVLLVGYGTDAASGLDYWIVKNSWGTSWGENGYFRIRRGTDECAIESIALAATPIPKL
T6 sequence (Q3ZCJ8 25-134 limits assumed): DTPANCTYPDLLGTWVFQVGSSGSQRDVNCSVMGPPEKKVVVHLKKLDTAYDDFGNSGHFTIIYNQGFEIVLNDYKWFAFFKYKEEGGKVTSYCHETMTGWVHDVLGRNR
Experimental: as §1
TRY, trypsin; THR, thrombin; PTH, plasmin; CTC, cathepsin C; ATM,
Enzyme: Purified cathepsin C from bovine spleen
Substrate: Glycyl-L-phenylalanine-pNA
Reaction mixture: 50 mM Citrate buffer (pH 5.4), 5 mM B-Mercaptoethanol, 150 mM NaCl, 10% DMSO, 20 mM Substrate.
as §2, §3

[7] = cathepsin C, pH 5.4, 10 minute preincubation, 22° C., read-out: IC50 CTC

IC50 [1] [µM]	IC50 [2] [µM]	pIC50 [3]	pIC50 [4]	pIC50 [5]	pIC50 [6, 7]	pIC50 [1]	pIC50 [6]	pIC50 [2]	Structure (SMILES)
> 60	20	< 4.30	8.32	7.48	< 4.22				CC1=C(C(=O)OC(c2ccccc2)c2ccccc2)N2C(=O)[C@H](Cl)[C@H]2S(=O)(=O)C12CC2(c1ccccc1)c1ccccc1 (single isomer, unassigned) [Example 1, Benzhydryl 7α-chloro-2-spiro(2',2'-diphenyl) cyclopropyl-3-methyl-3-cephem-4-carboxylate-1,1-dioxide]
> 37	> 16.2	< 4.30	7.47	7.74	< 4.41				CC1=C(C(=O)OC(c2ccccc2)c2ccccc2)N2C(=O)[C@H](Br)[C@H]2S(=O)(=O)C12CC2(c1ccccc1)c1ccccc1 (single isomer, unassigned) [Example 2, benzhydryl 7α-bromo-2-spiro(2', 2'-diphenyl) cyclopropyl-3-methyl-3-cephem-4-carboxylate-1,1-dioxide]
	19.4	< 4.34	8.00	6.63		4.26	< 4.26		CC1=C(C(=O)OC(c2ccccc2)c2ccccc2)N2C(=O)[C@H](Br)[C@H]2S(=O)(=O)C12CC2(c1ccc(Cl)cc1)c1ccc(Cl)cc1 (single isomer, unassigned) [Example 12, Benzhydryl 7α-bromo-2-spiro [2',2'-(4',4'-dichloro)diphenyl]cyclopropyl-3-methyl-3-cephem-4-carboxylate-1,1-dioxide]
	19	< 4.30	8.30	7.20		< 4.40	< 4.40		CC1=C(C(=O)OC(c2ccccc2)c2ccccc2)N2C(=O)[C@H](Br)[C@H]2S(=O)(=O)C12CC2(c1ccc(F)cc1)c1ccc(F)cc1 (single isomer, unassigned) [Example 13, Benzhydryl 7α-bromo-2-spiro[2',2'-(4',4'-difluoro)diphenyl] cyclopropyl-3-methyl-3-cephem-4-carboxylate-1,1-dioxide]
> 40	40	< 4.30	8.30	7.03	< 4.40				CC1=C(C(=O)OC(C)(C)C)N2C(=O)[C@H](Br)[C@H]2S(=O)(=O)C12CC2(c1ccccc1)c1ccccc1 (stereo partly drawn) [Example 3, t-Butyl 7α-bromo-2-spiro(2',2'-diphenyl) cyclopropyl-3-methyl-3-cephem 4-carboxylate-1,1-dioxide]
> 39	> 39	< 5.01	7.97	6.69	< 5.01				CC1=C(C(=O)N2CCCC2)N2C(=O)[C@H](Br)[C@H]2S(=O)(=O)C12CC2(c1ccccc1)c1ccccc1 (stereo partly drawn) [Example 6, 7α Bromo-2-spiro(2',2'-diphenyl)cyclopropyl-3-methyl-3-cephem-4-pyrrolidine carboxamide-1,1-dioxide]
> 10	0.32	< 5.00	8.26	7.79	< 5.00				CCO[C@H]1C(=O)N2C(C(=O)OCC(Cl)(Cl)Cl)=C(C)C3(CC3(c3ccccc3)c3ccccc3)S(=O)(=O)[C@H]12 (stereo partly drawn) [Example 7, 2,2,2-Trichloroethyl-7α-ethoxy-2-spiro(2',2'-diphenyl)cyclo-propyl-3-methyl-3-cephem-4-carboxylate-1,1-dioxide]
0.648	0.403	< 5.00	8.36	7.64			< 5.00		CO[C@H]1C(=O)N2C(C(=O)OCC(Cl)(Cl)Cl)=C(C)C3(CC3(c3ccccc3)c3ccccc3)S(=O)(=O)[C@H]12 (stereo partly drawn) [Example 8, 2,2,2-Trichloroethyl-7α-methoxy-2-spiro(2',2'-diphenyl) cyclopropyl-3-methyl-3-cephem-4-carboxylate-1,1-dioxide]
	> 10	< 5.08	8.44	7.26		< 5.00	< 5.00		CO[C@H]1C(=O)N2C(C(=O)OC(c3ccccc3)c3ccccc3)=C(C)C3(CC3(c3ccccc3)c3ccccc3)S(=O)(=O)[C@H]12 (stereo partly drawn) [Example 9, Benzhydryl 7α-methoxy-2-spiro (2',2'-diphenyl) cyclopropyl-3-methyl-3-cephem-4-carboxylate-1,1-dioxide]
> 35.9	> 30.9	< 5.00	7.35	7.08	< 5.00				CO[C@H]1C(=O)N2C(C(=O)N3CCCC3)=C(C)C3(CC3(c3ccccc3)c3ccccc3)S(=O)(=O)[C@H]12 (stereo partly drawn) [Example 10, 7α-Methoxy-2-spiro (2',2'-diphenyl)cyclopropyl-3-methyl-3-cephem-4-pyrrolidine carboxamide-1,1-dioxide]
0.58	13	< 4.30	7.19	7.50			< 4.40		CCOC(=O)C1CC12C(C)=C(C(=O)OC(c1ccccc1)c1ccccc1)N1C(=O)[C@H](Br)[C@H]1S2(=O)=O (stereo partly drawn) [Example 13 (1), Benzhydryl 7α-bromo-2-spiro(2'-ethoxycarbonyl)cyclopropyl-3-methyl-3-cephem-4-carboxylate-1,1-dioxide]
0.147		< 4.33	8.33	7.25			< 4.40	4.40	CC1=C(C(=O)OC(c2ccccc2)c2ccccc2)N2C(=O)[C@H](Br)[C@H]2S(=O)(=O)C12CC2(C)c1ccccc1 (stereo partly drawn) [Example 13 (2), Benzhydryl 7α-bromo-2-spiro(2'-phenyl-2'-methyl) cyclopropyl-3-methyl-3-cephem-4-carboxylate-1,1-dioxide]
